Assay results from patent US10753947B2, “Methods for screening voltage-gated proteins” (D.E. Shaw Research, LLC, priority 2012, dated 2020).
pIC50: −log10 of the molar value.

Key:
Kv2.1 R300S (R2S) = assay: Alpha currents (Iα) of Kv2.1 R2S in Xenopus oocytes, two electrode voltage-clamp; type: cell-based, human; conditions: 1 nM AgTx2, R2S
Excerpt: (§1) The coding cDNAs of KV2.1 “wild-type” (hereinafter WT) base construct (hKv2.1-m7-c3 is human Kv2.1, residues 1-858, mutated to confer AgTx2 sensitivity and to remove extracellular cysteine residues) was synthesized (Entelchon GmbH) and cloned into the high expression vector pBSTA.
(§2) Mutations Kv2.1 R294N (hereinafter R0N), Kv2.1 R300S (hereinafter R2S), Kv2.1 R294C/R300S (hereinafter R0C/R2S), Kv2.1 R293S/R294S (hereinafter R-1S/R0S), Kv2.1 R293S/R294C (hereinafter R-1S/R0C), Kv2.1 R293S/R294S/R300S (hereinafter R-1S/R0S/R2S), Kv2.1 R293S/R294C/R300S (hereinafter R-1S/R0C/R2S) were introduced using the QuikChange® Lightning Site-Directed Mutagenesis Kit (Stratagene) with mutagenic primers according to the manufacturer's instructions. All constructs were checked by restriction site mapping and sequencing.
Transcripted cRNA was produced using the mMessage mMachine kit (Ambion Inc.). Two to four days past injection of cRNA into stage V-VI Xenopus oocytes (NASCO) potassium currents through the alpha pore (Iα) were recorded with the two electrode voltage-clamp technique making use of a TURBO TEC-05× amplifier (npi electronic GmbH). Currents were filtered at 10 kHz and sampled at 20 kHz. The bath solution contained (in mM): NaCl 96, KCl 2, CaCl2 1, MgCl2 1 and HEPES 5 (pH 7.5). […]

[1] = test system: Kv2.1 R293S/R294S/R300S (R-1S/R0S/R2S); assay: Omega currents (Iω) of Kv2.1 R-1S/R0S/R2S in Xenopus oocytes, two electrode voltage-clamp; type: cell-based, human
Excerpt: as §1, §2
(§3) Transcripted cRNA was produced using the mMessage mMachine kit (Ambion Inc.). Two to four days past injection of cRNA into stage V-VI Xenopus oocytes (NASCO) potassium currents through the alpha pore (Iα) were recorded with the two electrode voltage-clamp technique making use of a TURBO TEC-05× amplifier (npi electronic GmbH). Currents were filtered at 10 kHz and sampled at 20 kHz. The bath solution contained (in mM): NaCl 96, KCl 2, CaCl2 1, MgCl2 1 and HEPES 5 (pH 7.5). Voltage-recording and current-injecting microelectrodes were filled with 3 M KCl and pulled to have resistances between 0.2 and 1 MΩ (see Stork et al., 2007). The pClamp software package v.10.1 (Molecular Devices, Inc.) was used for data acquisition and analysis.
Recording of alpha currents (Iα): Pulses of 100 ms were applied from ˜60 to +60 mV in 10 mV steps at 1 Hz from a holding potential of ˜80 mV to the Kv2.1 channel constructs to measure alpha currents (Iα). Passive leak currents were subtracted online using a P/4 procedure: pClamp software generates a series of scaled-down replica sweeps of the main stimulus waveform. […] The cell's response to the subsweeps is used to calculate the degree of passive cellular current leak. This is then subtracted from acquired data on the associated input signal. Recording of omega currents (Iω): Pulses of 10 ms were applied from a holding potential of ˜80 to ˜300 mV in 20 mV steps at 0.3 Hz to the Kv2.1 channel constructs. Iω were recorded without leak subtraction.
AgTx2 (Sigma Aldrich) was reconstituted according to manufacturer's instructions with 10 mM Tris, pH 7.5, containing 100 mM sodium chloride, 0.1% bovine serum albumin, and 1 mM EDTA. LaCl3 was from Sigma Aldrich; MTSEA, MTSES and MTSET were from Biotium.
La^3+, AgTx2, MTSEA, MTSES and MTSET and were applied to Xenopus oocytes by means of a fast perfusion technique (ScreeningTool as described by Baburin et al., 2006). Origin software v.7.0 (OriginLab Corp.) was employed for data analysis. Inhibition of inward currents was defined as 1−Iω,drug/Iω,control, where Iω,drug is the current response in the presence of a given concentration of lanthanum (La^3+) and Iω, control is the control current through the omega pore. The concentration-inhibition curve was fitted using the Hill equation: Iω,drug/Iω,control=A+[…] where IC50 is the concentration at which Iω inhibition is half-maximal, C is the applied La^3+ concentration, A is the fraction of Iω current that blocked and nH is the Hill coefficient. Data are given as mean±SE (n=number of experiments).

[2] = test system: KV2.1 wild-type base construct (hKv2.1-m7-c3); assay: Alpha currents (Iα) of Kv2.1 WT base construct in Xenopus oocytes, two electrode voltage-clamp; type: cell-based, human; conditions: 1 nM AgTx2, WT
Procedure: as §1, §3
For recording of alpha currents (Iα), 100 ms pulses were applied from ˜60 to +60 mV in 10 mV steps at 1 Hz from a holding potential of ˜80 mV to the Kv2.1 channel constructs to measure alpha currents (Iα). Passive leak currents were subtracted online using a P/4 procedure: pClamp software generates a series of scaled-down replica sweeps of the main stimulus waveform. […]

Kv1.1 = Kv1.1 (Homo sapiens, UniProt Q09470); conditions: Table 5; read-out: IC50, channel Kv1.1; cited from earlier work
Kv1.2 = Kv1.2 (Homo sapiens, UniProt P16389); conditions: Table 5; result in words; cited from earlier work
Sequence of Kv1.2 (P16389 whole entry): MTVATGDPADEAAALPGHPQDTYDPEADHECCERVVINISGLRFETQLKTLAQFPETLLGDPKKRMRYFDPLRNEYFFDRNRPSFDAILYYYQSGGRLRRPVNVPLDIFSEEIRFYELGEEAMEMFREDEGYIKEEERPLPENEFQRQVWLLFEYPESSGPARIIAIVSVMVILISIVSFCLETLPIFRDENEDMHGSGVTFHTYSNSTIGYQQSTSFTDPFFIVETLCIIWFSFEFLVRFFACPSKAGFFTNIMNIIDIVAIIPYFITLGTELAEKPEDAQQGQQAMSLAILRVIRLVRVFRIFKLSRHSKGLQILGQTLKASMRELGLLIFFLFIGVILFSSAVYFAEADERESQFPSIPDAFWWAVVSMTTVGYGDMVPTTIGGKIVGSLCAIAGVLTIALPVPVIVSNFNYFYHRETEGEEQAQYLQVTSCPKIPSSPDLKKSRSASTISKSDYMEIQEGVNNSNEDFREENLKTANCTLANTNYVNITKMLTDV

Sequence of Kv1.1 (Q09470 whole entry): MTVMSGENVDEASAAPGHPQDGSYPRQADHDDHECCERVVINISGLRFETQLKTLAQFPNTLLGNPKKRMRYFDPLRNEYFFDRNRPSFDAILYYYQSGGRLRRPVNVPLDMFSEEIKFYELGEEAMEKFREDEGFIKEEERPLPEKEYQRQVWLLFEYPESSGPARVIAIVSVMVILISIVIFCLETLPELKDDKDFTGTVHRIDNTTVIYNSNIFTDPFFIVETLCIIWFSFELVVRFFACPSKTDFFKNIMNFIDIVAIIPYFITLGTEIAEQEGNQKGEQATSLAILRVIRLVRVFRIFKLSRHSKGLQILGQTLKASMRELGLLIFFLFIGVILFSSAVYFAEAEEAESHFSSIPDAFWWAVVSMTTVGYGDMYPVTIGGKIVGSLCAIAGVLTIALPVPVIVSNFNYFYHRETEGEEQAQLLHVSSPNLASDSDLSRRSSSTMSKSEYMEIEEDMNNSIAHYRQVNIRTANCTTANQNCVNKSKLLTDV

Substance	Mean inhibition of the maximal outward current at +60 mV (Kv2.1 R300S (R2S))	Inhibition of inward currents at negative potentials (Iω) ([1]; 10 nM AgTx2, after 5 minutes)	Mean inhibition of the maximal outward current at +60 mV [2]	pIC50 (Kv1.1)	Effect on omega current (Iω) ([1]; 100 nM GxTx-1E, 5 minutes application)	IC50, channel Kv1.2 (Kv1.2)
Agitotoxin-2 (GVPINVSCTGSPQCIKPCKDAGMRFGKCMNRKCHCTPK) [AgTx2]	67.8±2.8%	not inhibited	66.5±2.9%	10.36	–	–
Guangxitoxin (EGECGGFWWKCGSGKPACCPKYVCSPKWGLCNFPMP) [GxTx-1E]	–	–	–	–	enhanced	No effect
